Data published in the supplement of paper PMC10307832.

What was measured:
Assay in all cases: relative viability (nuclei count vs DMSO), 5 days (fraction); higher = more cells survive
NCI-H3122 = system: NCI-H3122
In short: (§1)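 Each reported value is a median over duplicate plates. It expresses relative viability: treated-well nuclei count divided by vehicle-well nuclei count. Lung cancer cell lines in 1536-well plates were dosed by pin tool a day after seeding, alone with one drug or with a fixed anchor-drug dose plus five library-drug doses (not always all listed) in √10 steps, and nuclei were counted after 5 days.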

HARA = system: HARA
In short: as §1

NCI-H838 = system: NCI-H838
In short: as §1

CAL-12T = system: CAL-12T
In short: as §1

LU99A = system: LU99A
In short: as §1

NCI-H2009 = system: NCI-H2009
In short: as §1

COR-L23 = system: COR-L23
In short: as §1

NCI-H441 = system: NCI-H441
In short: as §1

NCI-H727 = system: NCI-H727
In short: as §1

LK-2 = system: LK-2
In short: as §1

EKVX = system: EKVX
In short: as §1

ABC-1 = system: ABC-1
In short: as §1

NCI-H1666 = system: NCI-H1666
In short: as §1

201T = system: 201T
In short: as §1

COR-L 105 = system: COR-L 105
In short: as §1

NCI-H661 = system: NCI-H661
In short: as §1

PC-14 = system: PC-14
In short: as §1

HCC-366 = system: HCC-366
In short: as §1

NCI-H1437 = system: NCI-H1437
In short: as §1

BEN = system: BEN
In short: as §1

## C=C1C(=O)O[C@@H](CCCCCCCC)[C@@H]1C(=O)O [C-75] + C[C@]1(O)C[C@@H](c2nc(-c3ccc4ccc(-c5ccccc5)nc4c3)c3c(N)nccn32)C1 [Linsitinib] (partner 1 µM)
NCI-H3122; first compound 0.08 µM
  relative viability: 1.02
NCI-H3122; first compound 0.253 µM
  relative viability: 1.06
NCI-H3122; first compound 0.8 µM
  relative viability: 1.04
NCI-H3122; first compound 8 µM
  relative viability: 1.1
HARA; first compound 0.08 µM
  relative viability: 0.861
HARA; first compound 0.253 µM
  relative viability: 0.954
HARA; first compound 0.8 µM
  relative viability: 0.915
HARA; first compound 8 µM
  relative viability: 0.97
NCI-H838; first compound 0.08 µM
  relative viability: 0.935
NCI-H838; first compound 0.253 µM
  relative viability: 0.706
NCI-H838; first compound 0.8 µM
  relative viability: 1.01
NCI-H838; first compound 2.53 µM
  relative viability: 0.943
NCI-H838; first compound 8 µM
  relative viability: 0.836
CAL-12T; first compound 0.08 µM
  relative viability: 0.814
CAL-12T; first compound 0.253 µM
  relative viability: 1.02
CAL-12T; first compound 0.8 µM
  relative viability: 0.751
CAL-12T; first compound 2.53 µM
  relative viability: 0.701
CAL-12T; first compound 8 µM
  relative viability: 0.792
LU99A; first compound 0.08 µM
  relative viability: 0.571
LU99A; first compound 0.253 µM
  relative viability: 0.598
LU99A; first compound 0.8 µM
  relative viability: 0.528
LU99A; first compound 2.53 µM
  relative viability: 0.412
LU99A; first compound 8 µM
  relative viability: 0.464
NCI-H2009; first compound 0.08 µM
  relative viability: 1.19
NCI-H2009; first compound 0.253 µM
  relative viability: 1.09
NCI-H2009; first compound 0.8 µM
  relative viability: 1.11
NCI-H2009; first compound 2.53 µM
  relative viability: 1.02
NCI-H2009; first compound 8 µM
  relative viability: 0.997
COR-L23; first compound 0.08 µM
  relative viability: 0.935
COR-L23; first compound 0.253 µM
  relative viability: 0.907
COR-L23; first compound 0.8 µM
  relative viability: 0.856
COR-L23; first compound 2.53 µM
  relative viability: 0.632
COR-L23; first compound 8 µM
  relative viability: 0.909
NCI-H441; first compound 0.08 µM
  relative viability: 0.476
NCI-H441; first compound 0.253 µM
  relative viability: 0.592
NCI-H441; first compound 0.8 µM
  relative viability: 0.373
NCI-H441; first compound 2.53 µM
  relative viability: 0.48
NCI-H441; first compound 8 µM
  relative viability: 0.442
NCI-H727; first compound 0.08 µM
  relative viability: 0.277
NCI-H727; first compound 0.253 µM
  relative viability: 0.614
NCI-H727; first compound 0.8 µM
  relative viability: 0.263
NCI-H727; first compound 2.53 µM
  relative viability: 0.183
NCI-H727; first compound 8 µM
  relative viability: 0.283
LK-2; first compound 0.08 µM
  relative viability: 0.416
LK-2; first compound 0.253 µM
  relative viability: 0.785
LK-2; first compound 0.8 µM
  relative viability: 0.607
LK-2; first compound 2.53 µM
  relative viability: 0.514
LK-2; first compound 8 µM
  relative viability: 0.369
EKVX; first compound 0.08 µM
  relative viability: 1.01
EKVX; first compound 0.253 µM
  relative viability: 1.05
EKVX; first compound 0.8 µM
  relative viability: 0.906
EKVX; first compound 2.53 µM
  relative viability: 0.96
EKVX; first compound 8 µM
  relative viability: 0.908
ABC-1; first compound 0.08 µM
  relative viability: 0.85
ABC-1; first compound 0.253 µM
  relative viability: 0.854
ABC-1; first compound 0.8 µM
  relative viability: 0.705
ABC-1; first compound 2.53 µM
  relative viability: 0.764
ABC-1; first compound 8 µM
  relative viability: 0.552
NCI-H1666; first compound 0.08 µM
  relative viability: 0.79
NCI-H1666; first compound 0.253 µM
  relative viability: 1.01
NCI-H1666; first compound 0.8 µM
  relative viability: 0.816
NCI-H1666; first compound 2.53 µM
  relative viability: 0.858
NCI-H1666; first compound 8 µM
  relative viability: 0.644
201T; first compound 0.08 µM
  relative viability: 1.01
201T; first compound 0.253 µM
  relative viability: 1.06
201T; first compound 0.8 µM
  relative viability: 1.1
201T; first compound 2.53 µM
  relative viability: 1.02
201T; first compound 8 µM
  relative viability: 1.1
COR-L 105; first compound 0.08 µM
  relative viability: 0.993
COR-L 105; first compound 0.253 µM
  relative viability: 0.928
COR-L 105; first compound 0.8 µM
  relative viability: 0.89
COR-L 105; first compound 2.53 µM
  relative viability: 0.946
COR-L 105; first compound 8 µM
  relative viability: 0.886
NCI-H661; first compound 0.08 µM
  relative viability: 0.504
NCI-H661; first compound 0.253 µM
  relative viability: 0.571
NCI-H661; first compound 0.8 µM
  relative viability: 0.461
NCI-H661; first compound 2.53 µM
  relative viability: 0.491
NCI-H661; first compound 8 µM
  relative viability: 0.457
PC-14; first compound 0.08 µM
  relative viability: 0.956
PC-14; first compound 0.253 µM
  relative viability: 0.818
PC-14; first compound 0.8 µM
  relative viability: 1.03
PC-14; first compound 2.53 µM
  relative viability: 0.778
PC-14; first compound 8 µM
  relative viability: 0.939
HCC-366; first compound 0.08 µM
  relative viability: 0.629
HCC-366; first compound 0.253 µM
  relative viability: 0.645
HCC-366; first compound 0.8 µM
  relative viability: 0.558
HCC-366; first compound 8 µM
  relative viability: 0.258
NCI-H1437; first compound 0.08 µM
  relative viability: 1.03
NCI-H1437; first compound 0.253 µM
  relative viability: 1
NCI-H1437; first compound 0.8 µM
  relative viability: 1.04
NCI-H1437; first compound 2.53 µM
  relative viability: 1.01
NCI-H1437; first compound 8 µM
  relative viability: 1.04
BEN; first compound 0.08 µM
  relative viability: 0.847
BEN; first compound 0.253 µM
  relative viability: 0.982
BEN; first compound 0.8 µM
  relative viability: 0.937
BEN; first compound 2.53 µM
  relative viability: 0.873
BEN; first compound 8 µM
  relative viability: 0.854
